Our source for the GI50 and TGI values is PubChem BioAssay (NCI).

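Method: 48-hour compound exposure of cells in 96-well plates, five concentrations, linear interpolation of endpoints. Abbreviation: GI50, concentration required for 50% inhibition of growth. TGI: concentration producing complete growth inhibition.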

Among the test systems are UACC-257 melanoma; SF-295 CNS; HCT-15 colon; K-562 leukemia; SNB-75 CNS; EKVX NSCLC; LOX IMVI melanoma; U251 CNS; 786-0 renal; SF-539 CNS.
Common to all, as to experiment: NCI-60 cell line screen, 48 h

Consider `Cc1cc2nc3c4ccccc4n(CCN(C)C)c3nc2cc1C`, for which the GI50 was 1940 nM in the experiment with UACC-257 melanoma; 1390 nM in the experiment on SF-295 CNS; 1770 nM with HCT-15 colon; 1550 nM in the experiment on K-562 leukemia; 1280 nM in the experiment with SNB-75 CNS; 2230 nM in the experiment on EKVX NSCLC. Also, the GI50 in the experiment with LOX IMVI melanoma was 748 nM; with U251 CNS, 2010 nM; in the experiment on 786-0 renal, 1970 nM; in the experiment with SF-539 CNS, 1830 nM. For the same compound, the TGI was found to be 5.16 µM in the experiment with UACC-257 melanoma; 9.84 µM in the experiment on SF-295 CNS; 10.4 µM in the experiment on HCT-15 colon; 10.7 µM in the experiment with K-562 leukemia; 3.2 µM in the experiment on SNB-75 CNS; 7.32 µM in the experiment with EKVX NSCLC. In addition, the TGI with LOX IMVI melanoma is 3.68 µM; with U251 CNS it was 11.3 µM; in the experiment on 786-0 renal, 12.2 µM; in the experiment on SF-539 CNS it was 4.66 µM.

As to `NC(=O)NC(=O)C1CCCCC1C(=O)O` (stereo not given), the TGI with UACC-257 melanoma, in the experiment on SF-295 CNS, with HCT-15 colon, with K-562 leukemia, with SNB-75 CNS and in the experiment with EKVX NSCLC was greater than 100 µM throughout. Also, the TGI in the experiment with LOX IMVI melanoma, with U251 CNS, with 786-0 renal and with SF-539 CNS was greater than 100 µM each time.

With `N#CSCC(=O)c1ccc(Cl)cc1`, the GI50 in the experiment on UACC-257 melanoma is 5640 nM; in the experiment with SF-295 CNS, 2890 nM; in the experiment on HCT-15 colon, 2850 nM; with K-562 leukemia, 974 nM; in the experiment with SNB-75 CNS, 2750 nM; in the experiment on EKVX NSCLC, 4990 nM. The GI50 was 3070 nM in the experiment on LOX IMVI melanoma, 3230 nM in the experiment with U251 CNS, 4960 nM with 786-0 renal and 2850 nM in the experiment on SF-539 CNS. The TGI was greater than 28.6 µM in the experiment with UACC-257 melanoma; 13.5 µM with SF-295 CNS; 32.2 µM in the experiment on HCT-15 colon; greater than 40.3 µM in the experiment with K-562 leukemia; 22.2 µM with SNB-75 CNS; 26.5 µM in the experiment with EKVX NSCLC. The TGI was determined as 13.3 µM in the experiment on LOX IMVI melanoma, 16.6 µM in the experiment with U251 CNS, 21.3 µM in the experiment with 786-0 renal and 14.9 µM with SF-539 CNS.

Regarding `C/C(=N\Nc1cccc(Cl)n1)c1ccccn1`, the GI50 in the experiment on UACC-257 melanoma is 2270 nM; in the experiment with SF-295 CNS it was 827 nM; with HCT-15 colon, 363 nM; in the experiment on K-562 leukemia, 574 nM; in the experiment on SNB-75 CNS it was 2280 nM; with EKVX NSCLC, 411 nM. The GI50 was 492 nM in the experiment on LOX IMVI melanoma, 582 nM with U251 CNS, 671 nM with 786-0 renal and 578 nM in the experiment on SF-539 CNS. The TGI in the experiment with UACC-257 melanoma is 7.51 µM; in the experiment on SF-295 CNS, greater than 32.3 µM; in the experiment on HCT-15 colon it was greater than 100 µM; in the experiment on K-562 leukemia, greater than 100 µM; in the experiment with SNB-75 CNS, greater than 56.9 µM; in the experiment with EKVX NSCLC, 18.6 µM. Besides, the TGI in the experiment with LOX IMVI melanoma is greater than 25 µM; in the experiment with U251 CNS, greater than 100 µM; in the experiment on 786-0 renal, 17.5 µM; in the experiment with SF-539 CNS, 4.53 µM.

With `Nc1cccc2nsnc12`, the TGI was greater than 100 µM with UACC-257 melanoma; greater than 100 µM with SF-295 CNS; greater than 100 µM with HCT-15 colon; greater than 85.4 µM with K-562 leukemia; greater than 100 µM in the experiment with SNB-75 CNS; greater than 100 µM in the experiment with EKVX NSCLC. Besides, the TGI in the experiment on LOX IMVI melanoma, in the experiment with U251 CNS, with 786-0 renal and with SF-539 CNS was greater than 100 µM throughout.

On to `COC(=O)/C(=N\O)C(C(=O)C=C(C)C)C(=O)C(=O)Nc1ccccc1C` (stereo not given), for which the TGI in the experiment with UACC-257 melanoma, with SF-295 CNS, with HCT-15 colon, with K-562 leukemia, with SNB-75 CNS and in the experiment on EKVX NSCLC was greater than 100 µM throughout. The TGI with LOX IMVI melanoma, in the experiment on U251 CNS, in the experiment with 786-0 renal and in the experiment with SF-539 CNS was greater than 100 µM each time.

Take `N#CC(C#N)=Cc1ccc(-c2ccc(-c3nc4ccccc4o3)cc2)o1`: the GI50 is greater than 100000 nM with UACC-257 melanoma; 30100 nM in the experiment on SF-295 CNS; 20200 nM in the experiment with HCT-15 colon; 19300 nM in the experiment on K-562 leukemia; greater than 100000 nM in the experiment with SNB-75 CNS; greater than 100000 nM in the experiment on EKVX NSCLC. Further, the GI50 was 16600 nM in the experiment with LOX IMVI melanoma, 21700 nM in the experiment with U251 CNS, 15800 nM in the experiment with 786-0 renal and 31100 nM in the experiment with SF-539 CNS. Further, the TGI with UACC-257 melanoma, in the experiment on SF-295 CNS, with HCT-15 colon, in the experiment with K-562 leukemia, with SNB-75 CNS and with EKVX NSCLC was greater than 100 µM throughout. The TGI with LOX IMVI melanoma was 44.8 µM; in the experiment with U251 CNS it was 52.5 µM; in the experiment with 786-0 renal it was 34 µM; in the experiment on SF-539 CNS it was greater than 100 µM.

Consider `Brc1ccc(Br)nn1`, for which the GI50 in the experiment on UACC-257 melanoma was 1720 nM; in the experiment with SF-295 CNS, 5380 nM; in the experiment with HCT-15 colon, 1740 nM; in the experiment on K-562 leukemia, 2170 nM; with SNB-75 CNS, 1970 nM; in the experiment on EKVX NSCLC, 8170 nM. For the same compound, the GI50 in the experiment with LOX IMVI melanoma is 1410 nM; in the experiment with U251 CNS, 1470 nM; with 786-0 renal it was 2110 nM; with SF-539 CNS it was 3250 nM. Besides, the TGI in the experiment with UACC-257 melanoma is 3.89 µM; in the experiment on SF-295 CNS it was 18.6 µM; with HCT-15 colon, 3.66 µM; with K-562 leukemia it was 10.3 µM; in the experiment with SNB-75 CNS, 8.41 µM; in the experiment on EKVX NSCLC it was 24.7 µM. Besides, the TGI was 2.88 µM in the experiment with LOX IMVI melanoma, 3.18 µM with U251 CNS, 4.75 µM with 786-0 renal and 12.2 µM with SF-539 CNS.

For `CC(=O)OCC(=O)C1(O)C(C)CC2C3C=C(C)C4=Cc5c(cnn5-c5ccccc5)CC4(C)C3C(O)CC21C` (stereo not given), the GI50 is 2960 nM with UACC-257 melanoma; 624 nM in the experiment with SF-295 CNS; 1150 nM in the experiment with HCT-15 colon; 500 nM with K-562 leukemia; 1890 nM in the experiment with SNB-75 CNS; 1480 nM in the experiment on EKVX NSCLC. The GI50 is 1690 nM in the experiment on LOX IMVI melanoma, 1000 nM in the experiment on U251 CNS, 1490 nM in the experiment with 786-0 renal and 439 nM in the experiment on SF-539 CNS. The TGI in the experiment on UACC-257 melanoma was 12.2 µM; with SF-295 CNS, 2.63 µM; with HCT-15 colon, 2.54 µM; in the experiment on K-562 leukemia it was greater than 100 µM; with SNB-75 CNS, 5.92 µM; with EKVX NSCLC it was 13.1 µM. Moreover, the TGI in the experiment on LOX IMVI melanoma was determined as 4.82 µM; in the experiment with U251 CNS it was 3.77 µM; with 786-0 renal, 3.22 µM; in the experiment with SF-539 CNS it was 2.41 µM.
